Article PMC7601681, “Human Serum Albumin Binds Native Insulin and Aggregable Insulin Fragments and Inhibits Their Aggregation” (Biomolecules, 2020)
Residues, ends and D or L forms follow the SMILES beside them. *: point of attachment. Butanoyl(4-pyren-1-yl) = O=C(CCCc1ccc2ccc3cccc4ccc1c2c34)*

Experiments:
HSA [1] = target: T1, HSA (Homo sapiens, UniProt P02768); test: Time-resolved fluorescence decay of the pyrene label in the presence of HSA; assay type: binding; conditions: [HSA] 30 μM, bi-exponential kinetics, average lifetime by Equation (2), λexc 337 nm, λem 400 nm
T1 construct: purchased Sigma-Aldrich
T1 sequence (P02768 25-609): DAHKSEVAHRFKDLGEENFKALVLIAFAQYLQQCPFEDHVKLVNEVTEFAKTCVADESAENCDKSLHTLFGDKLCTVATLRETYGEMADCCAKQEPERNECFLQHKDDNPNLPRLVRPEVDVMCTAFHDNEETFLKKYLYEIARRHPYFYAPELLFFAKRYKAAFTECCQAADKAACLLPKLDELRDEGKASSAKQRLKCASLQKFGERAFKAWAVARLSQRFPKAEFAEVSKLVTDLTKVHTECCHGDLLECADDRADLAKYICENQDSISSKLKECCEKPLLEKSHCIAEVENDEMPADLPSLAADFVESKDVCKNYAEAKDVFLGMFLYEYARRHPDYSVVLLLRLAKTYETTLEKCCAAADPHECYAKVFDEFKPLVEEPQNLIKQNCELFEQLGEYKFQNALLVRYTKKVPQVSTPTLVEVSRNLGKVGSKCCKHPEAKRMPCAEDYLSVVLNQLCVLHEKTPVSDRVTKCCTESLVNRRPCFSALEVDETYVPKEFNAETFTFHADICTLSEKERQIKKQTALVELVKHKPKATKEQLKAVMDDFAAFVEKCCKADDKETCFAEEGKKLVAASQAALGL
Experimental: The solutions of HSA (concentration = 3 10^−5 M) were prepared by dissolving the protein in 0.01 M of phosphate buffer saline (PBS, [NaCl] = 150 mM), pH = 7.2. […] The prepared samples were used within 24 h. […] In order to ensure complete protein hydration, the solutions were stored at room temperature for at least 1 h before measurements. The samples for fluorescence measurements were saturated with argon or deaerated with a vacuum pump.
Time-resolved measurements of HSA fluorescence were performed using a flash photolysis system based on a GL-3300 nitrogen laser (Photon Technology International, Birmingham, NJ, USA) providing single light pulses with a wavelength of 337.1 nm, duration ~800 ps, and average energy 100 µJ. The detection system consisted of a Baush&Lomb monochromator (Rochester, NY, USA), Hamamatsu 1P28 photomultiplier, and a PS325 power supply system (Stanford Research, Sunnyvale, CA, USA). […] All experiments were carried out at room temperature (25 ± 1 °C) using quartz cells with an optical length of 1 cm.

HSA [2] = target: T1, HSA; test: Quenching of pyrene fluorescence by acrylamide (Stern-Volmer) in buffer and HSA solution; assay type: binding; conditions: [HSA] 30 µM, Stern-Volmer plots
Experimental: Additionally, we examined the quenching of Py-LYQLENY and Py-VEALYL by acrylamide (ACR) in the buffer solution and HSA solution (Figure 5 Stern-Volmer plots).
Figure 5 Stern–Volmer plots for quenching of Py-LYQLENY and Py-VEALYL by ACR in the buffer and HSA solution. I0 is fluorescence intensity without quencher, I—fluorescence intensity at various concentrations of ACR, [HSA] = 30 µM.

[3] = Time-resolved fluorescence decay of the pyrene label in buffer or TX-100 (no protein); assay type: physicochemical; conditions: PBS, mono-exponential kinetics, λexc 337 nm, λem 400 nm; short lifetime taken as sign of aggregation
[4] = Solubility and aggregation of pyrene-labeled peptides seen by absorption and fluorescence; conditions: for solubility in ethanol and methanol: judged from narrow absorption bands
Experimental: The solutions of HSA (concentration = 3 10^−5 M) were prepared by dissolving the protein in 0.01 M of phosphate buffer saline (PBS, [NaCl] = 150 mM), pH = 7.2. […] The prepared samples were used within 24 h. […] The concentration of HSA was verified spectrophotometrically using the molar absorption coefficient 35500 M^−1cm^−1 at 280 nm for HSA [61]. In order to ensure complete protein hydration, the solutions were stored at room temperature for at least 1 h before measurements. The samples for fluorescence measurements were saturated with argon or deaerated with a vacuum pump.
The absorbances of Py-LYQLENY and Py-VEALYL were determined in 10 mM standard PBS solution, ethanol, methanol, and 10 mM TX-100. The spectra were normalized to a maximum of S0→S2 […]
band (Figure 4, panel I).
(1 picture or pasted object on this page, not shown here)
Fig. S7. Panel I: Normalized absorption spectra of Py-LYQLENY (a) and Py-VEALYL (b) in different solvents. Panel II: Normalized emission spectra of Py-LYQLENY (a) and Py-VEALYL (b) in different […]
We also investigated the solubility of Py-LYQLENY conjugate (2) in dioxane.
This allowed the molar coefficient absorbance to be determined, using the gravimetric […]
The addition of a small amount of concentrated
Py-LYQLENY stock solution in dioxane to the buffer solution enabled the molar absorbance coefficient […]
In order to investigate the possible aggregation of the fluorescence labeled insulin hot spots in the buffer solution, spectrophotometric titration was performed for Py -LYQLENY (2) in a range of concentration from 2.9 to 56.4 µM. Titration was carried out until there were no significant changes in fluorescence intensity.
The fluorescence spectra were recorded for each concentration (Figure 5a). After normalization of the […]
Fig. S8. Fluorescence spectra of Py-LYQLENY in PBS solutions recorded for the given probe

HSA [5] = target: T1, HSA; test: Steady-state fluorescence titration with HSA (binding constant Kb); conditions: Py-LYQLENY 3 µM in buffer, fluorescence intensity as function of HSA concentration (plateau at 45 µM), Equation (3)
Experimental: The prepared samples were used within 24 h.
Steady-state absorption and fluorescence spectra were recorded at a resolution of 0.5 nm using an Aminco Bowman AB2 Series spectrofluorometer (Thermo Fisher Scientific Inc., Waltham, MA, USA). Unless otherwise indicated, in emission measurements, the excitation wavelength was 337 nm, and excitation and emission slits were set to 2.0 and 0.5 nm, respectively.
For Py-LYQLENY conjugate (2), the binding constants Kb were calculated according to Equation (3) proposed by Kuzmin et al.:θ = Kb·[HSA] / (1+ Kb·[HSA])(3) where [HSA] is the concentration of the albumin [61], θ = (I − I0)/(I∞ − I0) is the fraction of the pyrene probe bound with HSA, I0 is fluorescence intensity without HSA, I∞ is fluorescence intensity with [HSA] = 45 µM (reaching a plateau, Figure 6b) and I is the fluorescence intensity for subsequent […].
The calculated value also confirmed existence of interactions between 2 and HSA with pyrene fragment presented on less polar environment inside protein. […] The binding constants 1.5 ± 0.3 × 10^6 dm^3 mol^−1 to 6.5 ± 0.4 × 10^7 dm^3 mol^−1 were calculated for complexes of HSA with Py-hydrophobic peptide.

Row | Compound | τHSA, lifetime of fluorescence decay in the presence of HSA (HSA [1]) | quenching by acrylamide in the presence of HSA versus buffer (slope of I0/I vs. ACR concentration) (HSA [2]) | τPBS, lifetime of fluorescence decay in PBS [3] | solubility in aqua media in the presence of HSA [4] | aggregation in buffer solution ([4]; 0.01 M PBS, 150 mM NaCl, pH 7.2) | solubility in ethanol and methanol [4] | binding constant Kb (HSA [5]) | solubility in dioxane [4] | solubility in the buffer solution compared with dioxane ([4]; PBS)
1 | CC(C)C[C@H](NC(=O)[C@H](Cc1ccc(O)cc1)NC(=O)[C@H](CC(C)C)NC(=O)[C@H](C)NC(=O)[C@H](CCC(=O)O)NC(=O)[C@@H](NC(=O)CCCc1ccc2ccc3cccc4ccc1c2c34)C(C)C)C(=O)O [Py-VEALYL, Py-VEALYL-OH] ({Butanoyl(4-pyren-1-yl)}-VEALYL-OH) | 153.9 ns | protected against interaction with the quencher | 43.9 ns | increased significantly | partial aggregation | good | – | – | –
2 | CC(C)C[C@H](NC(=O)CCCc1ccc2ccc3cccc4ccc1c2c34)C(=O)N[C@@H](Cc1ccc(O)cc1)C(=O)N[C@@H](CCC(N)=O)C(=O)N[C@@H](CC(C)C)C(=O)N[C@@H](CCC(=O)O)C(=O)N[C@@H](CC(N)=O)C(=O)N[C@@H](Cc1ccc(O)cc1)C(=O)O [Py-LYQLENY, Py-LYQLENY-OH] ({Butanoyl(4-pyren-1-yl)}-LYQLENY-OH) | – | – | – | increased significantly | – | good | 2 × 10^5 dm^3 mol^−1 | dissolved relatively well | lower
